Assays:
[1] = biological target: Bifunctional protein GlmU (Escherichia coli (strain K12), UniProt P0ACC7); assay: Inhibition of Escherichia coli GlmU acetyltransferase activity assessed as coenzyme A production using acetyl CoA substrate
[2] = biological target: Bifunctional protein GlmU (Escherichia coli (strain K12)) (UniProt P0ACC7); assay: Inhibition of Escherichia coli GlmU acetyltransferase activity assessed as coenzyme A production using acetyl CoA substrate at 100 uM
Chain of Bifunctional protein GlmU (Escherichia coli (strain K12)) (P0ACC7 whole entry, looked up): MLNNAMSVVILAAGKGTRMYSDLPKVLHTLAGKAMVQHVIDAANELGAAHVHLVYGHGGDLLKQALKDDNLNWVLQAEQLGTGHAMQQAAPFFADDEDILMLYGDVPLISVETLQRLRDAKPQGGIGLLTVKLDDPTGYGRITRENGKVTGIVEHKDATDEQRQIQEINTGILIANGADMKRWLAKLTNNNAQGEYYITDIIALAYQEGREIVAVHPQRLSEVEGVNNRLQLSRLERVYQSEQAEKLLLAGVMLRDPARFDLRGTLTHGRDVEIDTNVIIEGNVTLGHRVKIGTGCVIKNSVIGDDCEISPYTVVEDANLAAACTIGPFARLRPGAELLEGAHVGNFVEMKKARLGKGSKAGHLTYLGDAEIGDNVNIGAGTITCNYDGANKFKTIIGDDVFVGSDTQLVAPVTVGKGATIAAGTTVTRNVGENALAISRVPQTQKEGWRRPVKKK

Chain of Bifunctional protein GlmU (P0ACC7 whole entry): as the sequence (P0ACC7 whole entry, looked up) above

| SMILES | IC50 [1] | inhibition [2] |
| --- | --- | --- |
| COc1cc(OC)c(S(=O)(=O)N2c3ccccc3Oc3ccccc32)cc1NC(=O)[C@H]1[C@@H](C)[C@H]1C(=O)O | 30 nM | – |
| O=S(=O)(NCc1ccccn1)c1ccc(-c2ccno2)o1 | – | 30.6% |
| COc1cc(OC)c(S(=O)(=O)N2c3ccccc3CC[C@@H]2C)cc1NC(=O)c1ccccc1 | 200000 nM | – |
| COc1cc(OC)c(S(=O)(=O)Nc2ccc(F)cc2)cc1NC(C)=O | 25000 nM | – |
| COc1cc(OC)c(S(=O)(=O)N2c3ccccc3CC[C@H]2C)cc1NS(C)(=O)=O | 100000 nM | – |
| O=S(=O)(c1ccccc1)c1nc(-c2ccsc2)oc1NCC1CCCO1 (stereo unspecified) | – | 13.3% |
| COc1cc(OC)c(S(=O)(=O)N2CCC[C@H]2C)cc1NC(C)=O | 200000 nM | – |
| O=S(=O)(Nc1cc(F)ccc1F)c1c[nH]c2ncccc12 | – | 16.8% |
| Cc1ccc(C)c(NS(=O)(=O)c2ccc(-c3nnc(C(C)C)o3)o2)c1 | – | 34.4% |
| CC(C)C(=O)N1CCCc2cc(NS(=O)(=O)c3cccc(F)c3)ccc21 | – | 82.9% |
| COc1ccc(C2SCC(=O)Nc3[nH]nc(C)c32)c(OC)c1OC (stereo unspecified) | – | 20.5% |
| CSc1cccc(NS(=O)(=O)c2cc3c(cc2Cl)NC(=O)CO3)c1 | – | 68.7% |
| CN1C(C(=O)NCC2CCCO2)=CC(c2ccco2)=NS1(=O)=O (stereo unspecified) | – | 28.6% |
| CCOC(=O)c1cc(S(=O)(=O)N2CCCC2C(=O)NC(C)C)cn1C (stereo unspecified) | – | 10.3% |
| O=C(Nc1nonc1-c1ccccc1)C1COc2ccccc2O1 (stereo unspecified) | – | 17.5% |
| COc1cc(OC)c(S(=O)(=O)N2c3ccccc3Oc3ccccc32)cc1NC(=O)/C=C/C(=O)O | 10 nM | – |
| O=S(=O)(c1ccccc1)c1nc(-c2ccco2)oc1NCCCn1ccnc1 | – | 20.7% |
| COc1cc(OC)c(S(=O)(=O)NCc2ccc3c(c2)OCO3)cc1NC(C)=O | 200000 nM | – |
| O=C(NCCN1CCCC1)C1=C2CCCN2c2ccc(F)cc2S1(=O)=O | – | 25.1% |
| CCOC(=O)c1cc(S(=O)(=O)N2CCCC2C(=O)NC(C)(C)CC)cn1C (stereo unspecified) | – | 30.8% |
| COc1cc(OC)c(S(=O)(=O)N2c3ccccc3Oc3ccccc32)cc1NC(=O)Cc1ccncc1 | 60 nM | – |
| COc1cc(OC)c(S(=O)(=O)NCc2ccccc2N2CCC(CO)CC2)cc1NC(=O)CCC(=O)O | 3000 nM | – |
| O=C(CN1c2cccc3cccc(c23)S1(=O)=O)Nc1ccc(F)c(F)c1 | – | 28.4% |

| SMILES | IC50 [1] | inhibition [2] |
| --- | --- | --- |
| COc1cc(OC)c(S(=O)(=O)NCc2ccccc2-c2ccc(C(=O)O)cc2)cc1NC(=O)CCC(=O)O | 900 nM | – |
| COc1cc(OC)c(S(=O)(=O)N2c3ccccc3CC[C@@H]2C)cc1NC(=O)[C@@H]1[C@@H](C)[C@H]1C(=O)O | 400 nM | – |
| COC(=O)c1cc(S(=O)(=O)Nc2cccc(SC)c2)c[nH]1 | – | 5.65% |
| CCOC(=O)c1cc(S(=O)(=O)N2CCCC2C(=O)N2CCCC2)cn1C (stereo unspecified) | – | 7.99% |
| Cc1cc(S(=O)(=O)C(CNC(=O)c2ccco2)c2ccco2)ccc1F (stereo unspecified) | – | 12.6% |
| COc1cc(O)c(S(=O)(=O)N2c3ccccc3Oc3ccccc32)cc1NC(=O)[C@H]1[C@H](C)[C@@H]1C(=O)O | 60 nM | – |
| c1cncc(CNc2nnc(-c3nc(C4CC4)no3)c3ccccc23)c1 | – | 18.5% |
| COc1cc(OC)c(S(=O)(=O)N2CCCCC2)cc1NC(C)=O | 80000 nM | – |
| CCn1cc(C(=O)NCc2ccco2)c(S(=O)(=O)N2CCSCC2)n1 | – | 22.1% |
| COc1cc(OC)c(S(=O)(=O)N2c3ccccc3Oc3ccccc32)cc1NC(=O)Cc1ccnc(F)c1 | 90 nM | – |
| COc1cc(O)c(S(=O)(=O)N2c3ccccc3CC[C@H]2C)cc1NC(=O)[C@H]1[C@H](C)[C@H]1C(=O)O | 480 nM | – |
| O=S(=O)(c1cc(-c2nnc(C3CCCC3)o2)co1)N1CCc2ccccc2C1 | – | 32.3% |
| O=S(=O)(Nc1cc(F)cc(F)c1)c1c[nH]c2ncccc12 | – | 14.8% |
| COc1cc(OC)c(S(=O)(=O)N2Cc3ccccc3Oc3ccccc32)cc1NC(=O)CCC(=O)O | 30 nM | – |
| COc1cc(OC)c(S(=O)(=O)NCc2ccccc2N2CCC(COC(=O)CCC(=O)O)CC2)cc1NC(=O)CCC(=O)O | 250 nM | – |
| COc1cc(OC)c(S(=O)(=O)NCc2ccccc2N2CCC(C(=O)O)CC2)cc1NC(=O)CCC(=O)O | 500 nM | – |
| COc1cc(OC)c(S(=O)(=O)NCc2ccccc2N2CCC(CC(=O)O)CC2)cc1NC(=O)CCC(=O)O | 400 nM | – |
| O=S(=O)(Nc1ccc(F)c(F)c1)c1c[nH]c2ncccc12 | – | 25.9% |
| CCn1c(C)c(-c2nc(C3CC3)no2)c(S(=O)(=O)NCC2CCCO2)c1C (stereo unspecified) | – | 21.1% |
| COc1cc(NS(=O)(=O)c2c[nH]c3ncccc23)cc(OC)c1 | – | 19.3% |
| O=S(=O)(NCc1cccnc1)c1ccc(-c2ccno2)o1 | – | 44.7% |
| COc1ccc(-c2cnc(C)o2)cc1S(=O)(=O)Nc1cccc(F)c1 | – | 36% |
| Cc1nc2c(c(SCC(=O)c3ccc(O)cc3O)n1)CCC2 | – | 25.9% |

The remaining lines, values ahead:

| IC50 [1] | inhibition [2] | SMILES |
| --- | --- | --- |
| 1500 nM | – | COc1cc(OC)c(S(=O)(=O)N2c3ccccc3CC[C@H]2C)cc1NC(C)=O |
| 17000 nM | – | COc1cc(OC)c(S(=O)(=O)Nc2cccc(C)c2)cc1NC(C)=O |
| 10000 nM | – | COc1ccccc1CNS(=O)(=O)c1cc(NC(C)=O)c(OC)cc1OC |
| – | 40.6% | COc1ccc(-c2cnc(C)o2)cc1S(=O)(=O)Nc1cccc(Cl)c1 |
| – | 28.6% | CC(Sc1nnc(O)nc1O)C(=O)OCc1ccccc1 (stereo unspecified) |
| 200000 nM | – | COc1cc(OC)c(S(=O)(=O)NCc2ccccc2N2CCCCC2)cc1NC(C)=O |
| – | 3.74% | COC(=O)c1cc(S(=O)(=O)Nc2cccc(Cl)c2C)c[nH]1 |
| – | 20.9% | Cc1cc(SCC(=O)c2ccc(O)cc2O)ncn1 |
| – | 9.82% | CCc1ccccc1NS(=O)(=O)c1ccc(-c2ccc(=O)[nH]n2)o1 |
| 200 nM | – | COc1cc(OC)c(S(=O)(=O)N2c3ccccc3CC[C@@H]2C)cc1NC(=O)COCC(=O)O |
| 90 nM | – | COc1cc(OC)c(S(=O)(=O)N2c3ccccc3Sc3ccccc32)cc1NC(=O)CCC(=O)O |
| – | 15.2% | CCOC(=O)c1c(S(=O)(=O)NCC(=O)Nc2ccccc2)c(C)n(C)c1C |
| 15000 nM | – | CCN(c1ccccc1C)S(=O)(=O)c1cc(NC(C)=O)c(OC)cc1OC |
| 15000 nM | – | COc1cc(OC)c(S(=O)(=O)NCc2ccccc2CC(=O)O)cc1NC(C)=O |
| 500 nM | – | COc1cc(OC)c(S(=O)(=O)N2c3ccccc3CC[C@H]2C)cc1NC(=O)NCC(=O)O |
| – | 17.1% | COc1ccc(S(=O)(=O)C(CNC(=O)c2ccccc2)c2ccco2)cc1 (stereo unspecified) |
| 90 nM | – | COc1cc(OC)c(S(=O)(=O)N2c3ccccc3CC[C@@H]2C)cc1NC(=O)CCC(=O)O |
| – | 25.5% | COC(=O)C1CN(C(=O)C(C)Oc2ccccc2F)c2ccccc2O1 (stereo unspecified) |
| – | 19.8% | O=C(CN1c2ccc(F)cc2-c2ccccc2S1(=O)=O)Nc1cccnc1 |
| – | 24.6% | CC(=O)Cc1nsc(NC(=O)C2(C)Cc3ccccc3C(=O)O2)n1 (stereo unspecified) |
| 2000 nM | – | COc1cc(OC)c(S(=O)(=O)N(c2ccccc2)C(C)C)cc1NC(C)=O |
| 1000 nM | – | COc1cc(OC)c(S(=O)(=O)N2c3ccccc3CC[C@H]2C)cc1NC(=O)CSc1ccncc1 |
| 10 nM | – | COc1cc(OC)c(S(=O)(=O)N2c3ccccc3Oc3ccccc32)cc1NC(=O)CCC(=O)O |
| – | 21.1% | COc1ccccc1NS(=O)(=O)c1cc(-c2cnc(C3CC3)o2)ccc1C |
| – | 42% | COc1ccc(OC)c(N(CC(=O)O)S(=O)(=O)c2ccccc2)c1 |
| – | 11.9% | CCOC(=O)c1cc(S(=O)(=O)N(C)CC(=O)Nc2ccc(F)cc2)cn1C |
| – | 45.3% | CCOC(=O)COc1ccccc1/C=C1\N=C(SCC)SC1=O |
| – | 18.4% | O=C(CSC1=NS(=O)(=O)c2ccccc2N1)OCc1ccccc1 |

| IC50 [1] | inhibition [2] | SMILES |
| --- | --- | --- |
| – | 12% | COCCNC(=O)c1ccccc1NS(=O)(=O)c1ccc2c(c1)OCCO2 |
| 50 nM | – | COc1cc(O)c(S(=O)(=O)N2c3ccccc3CC[C@H]2C)cc1NC(=O)CCC(=O)O |
| – | 28.1% | Cc1nn(-c2ccccc2)c(O)c1/C=N/NC(=O)C(O)c1ccccc1 (stereo unspecified) |
| – | 29.2% | CCOc1ccc(OCC)c(NS(=O)(=O)c2ccc3c(c2)N(C)CCO3)c1 |
| 500 nM | – | COc1cc(OC)c(S(=O)(=O)N2c3ccccc3CC[C@H]2C)cc1NC(=S)NCC(=O)O |
| – | 14.3% | CCOC(=O)c1cc(S(=O)(=O)N(C)CC(=O)Nc2ccc(C)cn2)cn1C |
| 4000 nM | – | COc1cc(OC)c(S(=O)(=O)NCc2ccccc2Br)cc1NC(C)=O |
| 20000 nM | – | COc1cc(OC)c(S(=O)(=O)Nc2ccccc2)cc1NC(C)=O |
| – | 5.22% | COC(=O)c1cc(S(=O)(=O)Nc2ccc(C)cc2Cl)c[nH]1 |
| 20 nM | – | COc1cc(OC)c(S(=O)(=O)N(c2ccccc2)c2ccc(N)cc2)cc1NC(=O)CCC(=O)O |
| 430 nM | – | COc1cc(OC)c(S(=O)(=O)N2c3ccccc3CC[C@@H]2C)cc1NC(=O)CCc1nn[nH]n1 |
| – | 9.41% | CCOC(=O)CC1(c2ccccc2)SC(NC(C)=O)=NN1C(C)=O (stereo unspecified) |
| 800 nM | – | COc1cc(OC)c(S(=O)(=O)N2c3ccccc3CC[C@@H]2C)cc1NC(=O)Cc1ccnc(F)c1 |
| 40 nM | – | COc1cc(OC)c(S(=O)(=O)N(c2ccccc2)c2ccccc2)cc1NC(=O)CCC(=O)O |
| 680 nM | – | COc1cc(OC)c(S(=O)(=O)N2c3ccccc3CC[C@@H]2C)cc1NC(=O)Cc1ccnc(C#N)c1 |
| – | 45.1% | COc1ccc(Cl)cc1N(CC(=O)O)S(=O)(=O)c1ccccc1 |
| 40000 nM | – | COc1cc(OC)c(S(=O)(=O)NCc2ccccc2N2CCC(CO)CC2)cc1NC(C)=O |
| 3000 nM | – | COc1cc(OC)c(S(=O)(=O)N(C)c2ccccc2)cc1NC(C)=O |
| – | 11.1% | Cc1ccc(S(=O)(=O)n2ccn(C(=O)C(C)Oc3ccccc3)c2=O)cc1 (stereo unspecified) |
| 5000 nM | – | COc1cc(OC)c(S(=O)(=O)Nc2ccccc2F)cc1NC(C)=O |
| – | 16.2% | CCOC(=O)c1c(S(=O)(=O)NCC(=O)Nc2cccnc2)c(C)n(C)c1C |
| – | 16.5% | CCOC(=O)c1c(C)[nH]c(C)c1S(=O)(=O)NCC(=O)Nc1cccnc1 |
| 2000 nM | – | COc1cc(OC)c(S(=O)(=O)N2c3ccccc3CC[C@H]2C)cc1NC(=O)COC(C)=O |
| – | 15.8% | O=C(Nc1nc(S(=O)(=O)Cc2ccccc2)ns1)c1ccccc1 |
| – | 16.8% | CCOc1ccc(OCC)c(Nc2c(-c3ccccc3)c(=O)c2=O)c1 |
| – | 20.1% | CCCN1C=NS(=O)(=O)c2cc(C(=O)Nc3ccccc3F)ccc21 |
| – | 40% | COc1cc(Nc2c(-c3ccccc3)c(=O)c2=O)cc(OC)c1 |
